# Data from ChEMBL document CHEMBL3875145, “Highly potent anti-leishmanial derivatives of hederagenin, a triperpenoid from Sapindus saponaria L” (Eur J Med Chem, 2016).
# Tests used:
# [1] = Cytotoxicity against dog DH82 cells assessed as decrease in cell viability after 48 hrs by MTT assay; assay type: toxicity, cell-based, Canis lupus familiaris; conditions: read-out: LD50
# Leishmania infantum [2] = assay: Antiparasitic activity against Leishmania infantum MHOM/BR/70/BH46 promastigotes infected in dog DH82 cells at 1000 uM after 48 hrs by ELISA method; assay type: functional; conditions: MHOM/BR/70/BH46, DH82, 48 h
# Leishmania infantum [3] = assay: Antiparasitic activity against Leishmania infantum MHOM/BR/70/BH46 promastigotes infected in dog DH82 cells after 48 hrs by ELISA method; assay type: functional, cell-based; conditions: MHOM/BR/70/BH46, DH82, 48 h
# [4] = Cytotoxicity against African green monkey BGM cells assessed as decrease in cell viability after 48 hrs by MTT assay; assay type: toxicity, cell-based; conditions: chlorocebus aethiops, read-out: LD50
# [5] = Selectivity index, ratio of LD50 for human HepG2 cells to IC50 for Leishmania infantum MHOM/BR/70/BH46 promastigotes infected in dog DH82 cells; assay type: toxicity, cell-based; conditions: read-out: Ratio LD50/IC50
# [6] = Cytotoxicity against human HepG2 cells assessed as decrease in cell viability after 48 hrs by MTT assay; assay type: toxicity, cell-based; conditions: read-out: LD50
# [7] = Selectivity index, ratio of LD50 for African green monkey BGM cells to IC50 for Leishmania infantum MHOM/BR/70/BH46 promastigotes infected in dog DH82 cells; assay type: toxicity, cell-based; conditions: read-out: Ratio LD50/IC50
# [8] = Selectivity index, ratio of LD50 for dog DH82 cells to IC50 for Leishmania infantum MHOM/BR/70/BH46 promastigotes infected in dog DH82 cells; assay type: toxicity, cell-based; conditions: read-out: Ratio LD50/IC50
smiles,measurement,setting,value
CC1(C)CC[C@]2(C(=O)OCc3cn(Cc4ccc(F)cc4F)nn3)CC[C@]3(C)C(=CC[C@@H]4[C@@]5(C)CC[C@H](O)[C@@](C)(CO)[C@@H]5CC[C@]43C)[C@@H]2C1,CC50 at 48 h,[1],66 µM
same,inhibition at 1000 µM,Leishmania infantum [2],87.7%
same,IC50,Leishmania infantum [3],11 µM
same,CC50 at 48 h,[4],158 µM
same,selectivity ratio,[5],> 31.2
same,CC50 at 48 h,[6],> 1000 µM
same,selectivity ratio,[7],4.9
same,selectivity ratio,[8],6
CC1(C)CC[C@]2(C(=O)NCc3cn(Cc4ccc(Cl)cc4)nn3)CC[C@]3(C)C(=CC[C@@H]4[C@@]5(C)CC[C@H](O)[C@@](C)(CO)[C@@H]5CC[C@]43C)[C@@H]2C1,CC50 at 48 h,[1],16 µM
same,inhibition at 1000 µM,Leishmania infantum [2],85.4%
same,IC50,Leishmania infantum [3],6 µM
same,CC50 at 48 h,[4],50 µM
same,selectivity ratio,[5],0.4
same,CC50 at 48 h,[6],2.5 µM
same,selectivity ratio,[7],8.3
same,selectivity ratio,[8],2.6
CC1(C)CC[C@]2(C(=O)OCc3cn(Cc4cccc(Br)c4)nn3)CC[C@]3(C)C(=CC[C@@H]4[C@@]5(C)CC[C@H](O)[C@@](C)(CO)[C@@H]5CC[C@]43C)[C@@H]2C1,CC50 at 48 h,[1],21 µM
same,inhibition at 1000 µM,Leishmania infantum [2],70.5%
same,IC50,Leishmania infantum [3],38 µM
same,CC50 at 48 h,[4],78 µM
same,selectivity ratio,[5],0.5
same,CC50 at 48 h,[6],19 µM
same,selectivity ratio,[7],2
same,selectivity ratio,[8],0.5
CC1(C)CC[C@]2(C(=O)OCc3cn(Cc4ccc([N+](=O)[O-])cc4)nn3)CC[C@]3(C)C(=CC[C@@H]4[C@@]5(C)CC[C@H](O)[C@@](C)(CO)[C@@H]5CC[C@]43C)[C@@H]2C1,inhibition at 1000 µM,Leishmania infantum [2],17%
CC1(C)CC[C@]2(C(=O)OCc3ccccc3)CC[C@]3(C)C(=CC[C@@H]4[C@@]5(C)CC[C@H](O)[C@@](C)(CO)[C@@H]5CC[C@]43C)[C@@H]2C1,inhibition at 1000 µM,Leishmania infantum [2],30.2%
CC1(C)CC[C@]2(C(=O)NCc3cn(Cc4ccccc4)nn3)CC[C@]3(C)C(=CC[C@@H]4[C@@]5(C)CC[C@H](O)[C@@](C)(CO)[C@@H]5CC[C@]43C)[C@@H]2C1,inhibition at 1000 µM,Leishmania infantum [2],11%
Cc1ccc(COC(=O)[C@]23CCC(C)(C)C[C@H]2C2=CC[C@@H]4[C@@]5(C)CC[C@H](O)[C@@](C)(CO)[C@@H]5CC[C@@]4(C)[C@]2(C)CC3)cc1,inhibition at 1000 µM,Leishmania infantum [2],44%
CC1(C)CC[C@]2(C(=O)NCc3cn(Cc4ccc([N+](=O)[O-])cc4)nn3)CC[C@]3(C)C(=CC[C@@H]4[C@@]5(C)CC[C@H](O)[C@@](C)(CO)[C@@H]5CC[C@]43C)[C@@H]2C1,inhibition at 1000 µM,Leishmania infantum [2],14%
CC1(C)CC[C@]2(C(=O)OCc3cn(Cc4ccc(Br)cc4)nn3)CC[C@]3(C)C(=CC[C@@H]4[C@@]5(C)CC[C@H](O)[C@@](C)(CO)[C@@H]5CC[C@]43C)[C@@H]2C1,inhibition at 1000 µM,Leishmania infantum [2],27.7%
CC1(C)CC[C@]2(C(=O)NCc3cn(Cc4cccc([N+](=O)[O-])c4)nn3)CC[C@]3(C)C(=CC[C@@H]4[C@@]5(C)CC[C@H](O)[C@@](C)(CO)[C@@H]5CC[C@]43C)[C@@H]2C1,inhibition at 1000 µM,Leishmania infantum [2],25.4%
CC1(C)CC[C@]2(C(=O)OCc3ccc(Br)cc3)CC[C@]3(C)C(=CC[C@@H]4[C@@]5(C)CC[C@H](O)[C@@](C)(CO)[C@@H]5CC[C@]43C)[C@@H]2C1,CC50 at 48 h,[1],83 µM
same,inhibition at 1000 µM,Leishmania infantum [2],64.5%
same,IC50,Leishmania infantum [3],12 µM
same,CC50 at 48 h,[4],116 µM
same,selectivity ratio,[5],21.6
same,CC50 at 48 h,[6],260 µM
same,selectivity ratio,[7],10
same,selectivity ratio,[8],6.9
CC1(C)CC[C@]2(C(=O)OCc3cn(Cc4cccc(Cl)c4)nn3)CC[C@]3(C)C(=CC[C@@H]4[C@@]5(C)CC[C@H](O)[C@@](C)(CO)[C@@H]5CC[C@]43C)[C@@H]2C1,inhibition at 1000 µM,Leishmania infantum [2],51.3%
C#CCOC(=O)[C@]12CCC(C)(C)C[C@H]1C1=CC[C@@H]3[C@@]4(C)CC[C@H](O)[C@@](C)(CO)[C@@H]4CC[C@@]3(C)[C@]1(C)CC2,inhibition at 1000 µM,Leishmania infantum [2],19%
CC1(C)CC[C@]2(C(=O)OCc3ccccc3[N+](=O)[O-])CC[C@]3(C)C(=CC[C@@H]4[C@@]5(C)CC[C@H](O)[C@@](C)(CO)[C@@H]5CC[C@]43C)[C@@H]2C1,inhibition at 1000 µM,Leishmania infantum [2],71.7%
CC1(C)CC[C@]2(C(=O)OCc3c(Cl)cccc3Cl)CC[C@]3(C)C(=CC[C@@H]4[C@@]5(C)CC[C@H](O)[C@@](C)(CO)[C@@H]5CC[C@]43C)[C@@H]2C1,CC50 at 48 h,[1],202 µM
same,inhibition at 1000 µM,Leishmania infantum [2],53%
same,IC50,Leishmania infantum [3],307 µM
same,selectivity ratio,[8],0.6
CC1(C)CC[C@]2(C(=O)NCc3cn(Cc4ccc(F)cc4)nn3)CC[C@]3(C)C(=CC[C@@H]4[C@@]5(C)CC[C@H](O)[C@@](C)(CO)[C@@H]5CC[C@]43C)[C@@H]2C1,inhibition at 1000 µM,Leishmania infantum [2],10.2%
CC1(C)CC[C@]2(C(=O)NCc3cn(Cc4ccccc4Cl)nn3)CC[C@]3(C)C(=CC[C@@H]4[C@@]5(C)CC[C@H](O)[C@@](C)(CO)[C@@H]5CC[C@]43C)[C@@H]2C1,inhibition at 1000 µM,Leishmania infantum [2],0%
CC1(C)CC[C@]2(C(=O)NCc3cn(Cc4cccc(Cl)c4)nn3)CC[C@]3(C)C(=CC[C@@H]4[C@@]5(C)CC[C@H](O)[C@@](C)(CO)[C@@H]5CC[C@]43C)[C@@H]2C1,inhibition at 1000 µM,Leishmania infantum [2],31.1%
